Like-named read-outs stand apart in the source and are kept apart here.

Consider 33 compounds from patent US10618902B2, “Substituted pyrido[2,3-d]pyrimidines as inhibitors of protein kinases” (Celgene CAR LLC, priority 2013, dated 2020).

Assay [1] deals with FGFR4-WT (Homo sapiens (Human), UniProt P22455). As to the kind of experiment: Omnia assay for potency against FGFR4 enzyme. The class given is biochemical. The note with it: method a: FGFR4-WT (Invitrogen) 10 nM, ATP 300 uM, Y10-Sox 10 uM. How it is done: A 10× stock solution of FGFR4-WT (PR4380C or P3054), (from Invitrogen, Carlsbad, Calif.) corresponding to method a in Table 10, was prepared as described below. Alternatively, a 10× stock solution of FGFR4-WT (F01-11G), (SignalChem, Richmond, BC) corresponding to method b in Table 10, was prepared as described below. A solution of 1.4×ATP (AS001A) and 5× Tyr-Sox conjugated peptide substrate (KNZ3101) were prepared in 1× kinase reaction buffer consisting of 20 mM Tris, pH 7.5, 5 mM MgCl2, 1 mM EGTA, 5 mM […], 5% glycerol (10× stock, KB002A) and 0.2 mM DTT (DS001A). […] The serially diluted compounds were prepared on a Tecan EVO100. A second addition of 10 μl of Tyr-Sox FGFR4 substrate was added to each well and the kinase reactions were started with the addition of 35 μL of 1.4×ATP. The reactions were monitored every 71 seconds for 240 minutes at λex360/λem485 in a Synergy plate reader from BioTek (Winooski, Vt.). […] Methods:
a) [FGFR4-WT]=10 nM, [ATP]=300 uM, [Y10-Sox]=10 uM (ATP KMapp−300 uM),

Assay [2] addresses pFGFR4 (Huh7 cells) (Homo sapiens (Human), UniProt P22455). In words: FGFR4 signaling (pFGFR4) in Huh7 cells (MSD). The note with it: read-out: Signaling EC50 (nM) pFGFR4 (Huh). The class given is cell-based.
Assay [3] deals with Huh7 cells. As to the kind of experiment: Cell proliferation, Huh7 (CellTiter Glo). The class given is cell-based. How it is done: The growth inhibition (GI50) values were determined by Graph Pad Prism.
(In general: Cellular ATP, detected with luciferase, serves as a proxy for viable cell number.)

[4] abbreviates: 120 hr, read-out: Cell Proliferation GI50 (nM) HUH.

Sequence of pFGFR4 (Huh7 cells) (P22455 22-802): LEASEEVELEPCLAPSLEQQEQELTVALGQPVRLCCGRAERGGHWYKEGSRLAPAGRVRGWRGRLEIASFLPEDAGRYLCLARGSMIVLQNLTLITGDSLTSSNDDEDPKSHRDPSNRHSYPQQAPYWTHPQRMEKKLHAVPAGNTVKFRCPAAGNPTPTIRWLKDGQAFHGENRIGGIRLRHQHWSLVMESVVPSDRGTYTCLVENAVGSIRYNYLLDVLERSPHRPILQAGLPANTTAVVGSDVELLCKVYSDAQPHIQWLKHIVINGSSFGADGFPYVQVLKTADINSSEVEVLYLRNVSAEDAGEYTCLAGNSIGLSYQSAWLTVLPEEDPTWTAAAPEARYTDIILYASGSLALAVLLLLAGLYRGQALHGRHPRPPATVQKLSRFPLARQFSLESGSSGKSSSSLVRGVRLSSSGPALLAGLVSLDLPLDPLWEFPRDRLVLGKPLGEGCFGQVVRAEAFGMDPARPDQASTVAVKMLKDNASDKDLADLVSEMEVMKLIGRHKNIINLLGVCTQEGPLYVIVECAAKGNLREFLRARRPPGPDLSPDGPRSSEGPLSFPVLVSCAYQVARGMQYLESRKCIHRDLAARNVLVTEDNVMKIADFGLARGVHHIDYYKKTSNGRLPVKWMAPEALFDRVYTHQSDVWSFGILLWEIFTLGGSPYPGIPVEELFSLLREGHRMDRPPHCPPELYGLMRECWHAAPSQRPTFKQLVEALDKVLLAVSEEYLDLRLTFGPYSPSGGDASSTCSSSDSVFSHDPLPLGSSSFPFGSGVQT
Sequence of FGFR4-WT (P22455 22-802): as above

As a reminder, the IC50 is the concentration needed to halve the response being measured. The term EC50 denotes the midpoint of the concentration-response curve. In the case of `C=CC(=O)Nc1ccc(C(F)(F)F)cc1Nc1ncc2cc(-c3c(Cl)c(OC)cc(OC)c3Cl)c(=O)n(C)c2n1` [Compound I-258], the IC50 in assay [1] is less than 100 nM. The EC50 in assay [2] is less than 100 nM.

For `C=CC(=O)Nc1cc(-c2ccn(C)n2)ccc1Nc1ncc2cc(-c3c(Cl)c(OC)cc(OC)c3Cl)c(=O)n(C)c2n1` [Compound I-267], the IC50 in assay [1] is less than 100 nM. In assay [2], the EC50 was less than 100 nM.

For `C=CC(=O)N[C@H]1COC[C@H]1Nc1ncc2cc(-c3c(Cl)c(OC)cc(OC)c3Cl)c(=O)nc-2n1C1CCOCC1` [Compound I-300], the IC50 in assay [1] was less than 100 nM. In addition, the EC50 in assay [2] is less than 100 nM.

In assay [3] (Homo sapiens, Huh-7, 120 hr), `C=CC(=O)N[C@H]1COC[C@H]1Nc1ncc2cc(-c3c(Cl)c(OC)cc(OC)c3Cl)c(=O)n(C[C@@H]3CCN(C(C)=O)C3)c2n1` [Compound I-307] had a GI50 of 101 to 500 nM. Also, the IC50 in assay [1] was less than 100 nM. In assay [2], the EC50 was less than 100 nM.

In the case of `C=CC(=O)N[C@H]1COC[C@H]1Nc1ncc2cc(-c3cc(OC)cc(OC)c3F)c(=O)n(C)c2n1` [Compound I-274], the IC50 in assay [1] is less than 100 nM. In addition, the EC50 in assay [2] is less than 100 nM.

Consider `C=CC(=O)N[C@H]1COC[C@H]1Nc1ncc2cc(-c3c(Cl)c(OC)cc(OC)c3Cl)c(=O)nc-2n1C[C@H]1CCN(C(C)=O)C1` [Compound I-299], for which, in assay [3] (setting [4]), the GI50 lay within 101 to 500 nM. Further, in assay [1], the IC50 is less than 100 nM. Moreover, the EC50 in assay [2] is less than 100 nM.

For the compound `C=CC(=O)N[C@H]1COC[C@H]1Nc1ncc2cc(-c3c(Cl)c(OC)cc(OC)c3Cl)c(=O)nc-2n1CC1CCOC1` (stereo partly shown) [Compound I-298], the GI50 in assay [3] (setting [4]) is less than 100 nM. Moreover, the IC50 in assay [1] is less than 100 nM. Moreover, in assay [2], the EC50 is less than 100 nM.

As for `C=CC(=O)NC1CN(C)CC1Nc1ncc2c(n1)N(C)C(=O)N(c1c(Cl)c(OC)cc(OC)c1Cl)C2` (racemic) [Compound I-138], the IC50 in assay [1] is 101 to 500 nM.

For `C=CC(=O)N[C@H]1COC[C@H]1Nc1ncc2cc(-c3c(Cl)c(OC)cc(OC)c3Cl)c(=O)nc-2n1CCF` [Compound I-304], in assay [1], the IC50 is less than 100 nM. In addition, the EC50 in assay [2] was less than 100 nM.

Turning to `C=CC(=O)N[C@@H]1CN(c2cc[nH]n2)C[C@@H]1Nc1ncc2cc(-c3c(Cl)c(OC)cc(OC)c3Cl)c(=O)n(C)c2n1` [Compound I-293], the IC50 in assay [1] lay within 101 to 500 nM. Further, the EC50 in assay [2] lay within 101 to 500 nM.

Turning to `C=CC(=O)N[C@H]1COC[C@H]1Nc1ncc2cc(-c3c(C)c(OC)cc(OC)c3C)c(=O)n(C)c2n1` [Compound I-294], in assay [3] (Homo sapiens, Huh-7, 120 hr), the GI50 lay within 101 to 500 nM.

As for `C=CC(=O)N[C@H]1CN(c2cc[nH]n2)C[C@H]1Nc1ncc2cc(-c3c(Cl)c(OC)cc(OC)c3Cl)c(=O)n(C)c2n1` [Compound I-292], the GI50 in assay [3] (Homo sapiens, Huh-7, 120 hr) is less than 100 nM. In addition, in assay [1], the IC50 is less than 100 nM. For the same compound, in assay [2], the EC50 was less than 100 nM.

In the case of `C=CC(=O)NC1CS(=O)(=O)CC1Nc1ncc2cc(-c3c(Cl)c(OC)cc(OC)c3Cl)c(=O)n(C)c2n1` (stereo not shown) [Compound I-256], the IC50 in assay [1] is less than 100 nM. Also, the EC50 in assay [2] is less than 100 nM.

Take `C=CC(=O)Nc1cc(-c2cnn(C)c2)ccc1Nc1ncc2cc(-c3c(Cl)c(OC)cc(OC)c3Cl)c(=O)n(C)c2n1` [Compound I-264]: in assay [1], the IC50 was less than 100 nM. Besides, the EC50 in assay [2] is less than 100 nM.

Take `C=CC(=O)NC1CN(c2ccn(C)n2)CC1Nc1ncc2cc(-c3c(Cl)c(OC)cc(OC)c3Cl)c(=O)n(C)c2n1` (stereo not shown) [Compound I-248]: in assay [3] (Homo sapiens, Huh-7, 120 hr), the GI50 was less than 100 nM. The IC50 in assay [1] was less than 100 nM. For the same compound, in assay [2], the EC50 is less than 100 nM.

In assay [3] (Homo sapiens, Huh-7, 120 hr), `C=CC(=O)N[C@H]1COC[C@H]1Nc1ncc2cc(-c3c(Cl)c(OC)cc(OC)c3Cl)c(=O)[nH]c2n1` [Compound I-290] registered a GI50 of less than 100 nM. For the same compound, in assay [1], the IC50 was less than 100 nM. For the same compound, the EC50 in assay [2] is less than 100 nM.

As for `C=CC(=O)N[C@H]1COC[C@H]1Nc1ncc2cc(-c3cc(OC)cc(OC)c3Cl)c(=O)nc-2n1C[C@H]1CCN(C(C)=O)C1` [Compound I-301], the GI50 in assay [3] (setting [4]) was less than 100 nM. For the same compound, the IC50 in assay [1] was less than 100 nM. The EC50 in assay [2] was less than 100 nM.

With `C=CC(=O)N[C@H]1COC[C@H]1Nc1ncc2cc(-c3c(Cl)c(OC)cc(OC)c3Cl)c(=O)n(C(C)C)c2n1` [Compound I-296], the 50% inhibitory concentration (IC50) in assay [1] is less than 100 nM. Besides, in assay [2], the EC50 is less than 100 nM.

As to `C=CC(=O)N[C@H]1COC[C@H]1Nc1ncc2cc(-c3c(Cl)c(OC)cc(OC)c3Cl)c(=O)nc-2n1CCO` [Compound I-303], the GI50 in assay [3] (setting [4]) was 101 to 500 nM. The IC50 in assay [1] was less than 100 nM. Further, the EC50 in assay [2] is less than 100 nM.

For the compound `C=CC(=O)NC1CC(=O)CC1Nc1ncc2cc(-c3c(Cl)c(OC)cc(OC)c3Cl)c(=O)n(C)c2n1` (stereo not shown) [Compound I-286], the IC50 in assay [1] was less than 100 nM. Moreover, the EC50 in assay [2] is less than 100 nM.

For the compound `C=CC(=O)NC1CN(C(C)=O)CC1Nc1ncc2c(n1)N(C)C(=O)N(c1c(Cl)c(OC)cc(OC)c1Cl)C2` (racemic) [Compound I-139], the IC50 in assay [1] is less than 100 nM.

For the compound `C=CC(=O)NC1CCCCC1Nc1ncc2c(n1)N(CCF)C(=O)N(c1c(Cl)c(OC)cc(OC)c1Cl)C2` (racemic) [Compound I-106], in assay [1], the half-maximal inhibitory concentration (IC50) lay in the range of 101 to 500 nM.

In the case of `C#CC(=O)N[C@H]1COC[C@H]1Nc1ncc2cc(-c3c(Cl)c(OC)cc(OC)c3Cl)c(=O)n(C)c2n1` [Compound I-251], the IC50 in assay [1] is less than 100 nM. In addition, the EC50 in assay [2] was less than 100 nM.

In the case of `C=CC(=O)N[C@H]1COC[C@H]1Nc1ncc2cc(-c3cc(OC)cc(OC)c3Cl)c(=O)n(C)c2n1` [Compound I-254], in assay [3] (setting [4]), the GI50 lay within 101 to 500 nM.

Regarding `C=CC(=O)Nc1c(Nc2ncc3cc(-c4c(Cl)c(OC)cc(OC)c4Cl)c(=O)n(C)c3n2)ccc(F)c1F` [Compound I-282], the IC50 in assay [1] is less than 100 nM. Besides, the EC50 in assay [2] is 101 to 500 nM.

In the case of `C=CC(=O)N[C@H]1COC[C@H]1Nc1ncc2cc(-c3cc(OC)cc(OC)c3Cl)c(=O)nc-2n1C` [Compound I-306], the IC50 in assay [1] is less than 100 nM. Moreover, in assay [2], the EC50 is less than 100 nM.

For `C=CC(=O)N[C@H]1COC[C@H]1Nc1ncc2cc(-c3cc(C(=O)Nc4cccc(C(C)(C)C)c4)ccc3Cl)c(=O)n(C)c2n1` [Compound I-265], the IC50 in assay [1] is less than 100 nM. Moreover, the EC50 in assay [2] was less than 100 nM.

With `C=CC(=O)NC1CC(F)(F)CC1Nc1ncc2cc(-c3c(Cl)c(OC)cc(OC)c3Cl)c(=O)n(C)c2n1` (stereo not shown) [Compound I-288], in assay [1], the IC50 is less than 100 nM. For the same compound, the EC50 in assay [2] is less than 100 nM.

Consider `C=CC(=O)NC1CC(O)CC1Nc1ncc2cc(-c3c(Cl)c(OC)cc(OC)c3Cl)c(=O)n(C)c2n1` (stereo not shown) [Compound I-284], for which, in assay [1], the IC50 is less than 100 nM. For the same compound, the EC50 in assay [2] fell in the range of 101 to 500 nM.

In the case of `C=CC(=O)Nc1cccc(F)c1Nc1ncc2cc(-c3c(Cl)c(OC)cc(OC)c3Cl)c(=O)n(C)c2n1` [Compound I-259], the GI50 in assay [3] (Homo sapiens, Huh-7, 120 hr) lay within 101 to 500 nM. Besides, the IC50 in assay [1] is less than 100 nM. In assay [2], the EC50 was less than 100 nM.

As to `C=CS(=O)(=O)N[C@H]1CCC[C@H]1Nc1ncc2cc(-c3c(Cl)c(OC)cc(OC)c3Cl)c(=O)n(C)c2n1` [Compound I-253], in assay [1], the IC50 is less than 100 nM. The EC50 in assay [2] was less than 100 nM.

Consider `C=CC(=O)Nc1nc(C)ccc1Nc1ncc2cc(-c3c(Cl)c(OC)cc(OC)c3Cl)c(=O)n(C)c2n1` [Compound I-278], for which the IC50 in assay [1] is less than 100 nM. Moreover, the EC50 in assay [2] is less than 100 nM.

For the compound `C=CC(=O)NC1CN(c2ccccn2)CC1Nc1ncc2cc(-c3c(Cl)c(OC)cc(OC)c3Cl)c(=O)n(C)c2n1` (stereo not shown) [Compound I-252], the IC50 in assay [1] is less than 100 nM. Also, in assay [2], the EC50 is less than 100 nM.
